Results as given in ChEMBL document CHEMBL1201862, “PubChem BioAssay data set” (2004).
Blank lines part the entries; values can stand above or below the compound they belong to. Activity calls are given as the source filed them.

What was measured:
[1] = target: 26S proteasome non-ATPase regulatory subunit 14 (Homo sapiens, UniProt O00487); assay: inhibition of proteasome subunit RPN11 – biochemical, fluorescence polarization, uHTS hits, confirmation (AID 602368); type: functional
[2] = target: 72 kDa type IV collagenase (Homo sapiens, UniProt P08253); assay: Dose Response validation of uHTS RPN11 inhibitor hits using a MMP-2 Fluorescence assay.; type: functional
Chain of 72 kDa type IV collagenase (P08253 whole entry): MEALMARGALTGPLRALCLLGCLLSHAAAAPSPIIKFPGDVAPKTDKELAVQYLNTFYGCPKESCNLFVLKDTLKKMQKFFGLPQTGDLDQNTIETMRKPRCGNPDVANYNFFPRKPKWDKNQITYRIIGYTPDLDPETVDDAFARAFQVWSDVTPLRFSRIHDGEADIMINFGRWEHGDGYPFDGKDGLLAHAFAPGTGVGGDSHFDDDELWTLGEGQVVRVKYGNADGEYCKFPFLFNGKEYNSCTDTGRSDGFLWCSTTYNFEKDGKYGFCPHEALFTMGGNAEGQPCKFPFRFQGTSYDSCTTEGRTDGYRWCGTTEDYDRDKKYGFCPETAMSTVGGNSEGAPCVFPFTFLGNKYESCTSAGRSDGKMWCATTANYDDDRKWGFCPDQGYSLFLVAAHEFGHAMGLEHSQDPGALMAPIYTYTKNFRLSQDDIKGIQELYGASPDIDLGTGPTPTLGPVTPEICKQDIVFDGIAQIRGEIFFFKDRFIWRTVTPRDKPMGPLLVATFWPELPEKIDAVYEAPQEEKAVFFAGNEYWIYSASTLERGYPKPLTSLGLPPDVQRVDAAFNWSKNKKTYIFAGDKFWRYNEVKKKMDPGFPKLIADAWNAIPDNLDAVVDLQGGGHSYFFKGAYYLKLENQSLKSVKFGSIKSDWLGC

Prothrombin = Prothrombin (Bos taurus, UniProt P00735); assay: thrombin protease inhibitors – biochemical, fluorescence polarization, uHTS hits, dose response (AID 602369); type: functional
[3] = target: T1, Probable nicotinate-nucleotide adenylyltransferase (Staphylococcus aureus (strain N315), UniProt P65502); type: functional, Staphylococcus aureus subsp. aureus N315;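 as to IC50 Mean: confirmatory dose-response retesting of NadD inhibitor hits first found in an ultra-high-throughput screen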
[4] = target: T1, Probable nicotinate-nucleotide adenylyltransferase; type: functional, Staphylococcus aureus subsp. aureus N315; settings: read-out: IC50_Mean
Aurora kinase A = Aurora kinase A (Homo sapiens, UniProt O14965); type: functional;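 also: value from the Navigating the Kinome kinase panel profiling, panel entry STK6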
Chain of Aurora kinase A (O14965 whole entry): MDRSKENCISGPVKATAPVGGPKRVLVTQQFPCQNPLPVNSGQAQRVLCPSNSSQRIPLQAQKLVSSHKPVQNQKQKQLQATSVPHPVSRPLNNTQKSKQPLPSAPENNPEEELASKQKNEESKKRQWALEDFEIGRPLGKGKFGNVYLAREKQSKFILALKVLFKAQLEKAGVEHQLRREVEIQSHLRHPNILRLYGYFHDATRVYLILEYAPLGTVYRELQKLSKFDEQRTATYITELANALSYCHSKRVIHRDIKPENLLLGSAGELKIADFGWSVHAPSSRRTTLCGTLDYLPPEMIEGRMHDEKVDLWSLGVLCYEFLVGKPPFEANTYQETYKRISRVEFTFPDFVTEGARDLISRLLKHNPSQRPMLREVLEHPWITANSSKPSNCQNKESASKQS

Aurora kinase B = Aurora kinase B (Homo sapiens, UniProt Q96GD4); type: functional
Chain of Aurora kinase B (Q96GD4 whole entry): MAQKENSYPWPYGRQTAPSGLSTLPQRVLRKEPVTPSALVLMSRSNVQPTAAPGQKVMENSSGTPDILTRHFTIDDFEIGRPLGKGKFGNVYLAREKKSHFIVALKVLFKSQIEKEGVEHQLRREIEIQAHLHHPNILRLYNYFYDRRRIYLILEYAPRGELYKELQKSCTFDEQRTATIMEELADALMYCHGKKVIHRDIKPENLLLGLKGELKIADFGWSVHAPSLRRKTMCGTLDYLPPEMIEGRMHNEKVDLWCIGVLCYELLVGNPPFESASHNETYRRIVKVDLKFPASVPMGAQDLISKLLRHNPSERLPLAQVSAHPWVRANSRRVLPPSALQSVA

Bcl-2-related protein A1 = target: T2, Bcl-2-related protein A1 (Mus musculus, UniProt Q07440); type: functional;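 also: confirmatory dose–response counterscreen on Bfl-1, used to check hits from a UBC13 polyubiquitin inhibitor campaign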
T2 sequence (Q07440 whole entry): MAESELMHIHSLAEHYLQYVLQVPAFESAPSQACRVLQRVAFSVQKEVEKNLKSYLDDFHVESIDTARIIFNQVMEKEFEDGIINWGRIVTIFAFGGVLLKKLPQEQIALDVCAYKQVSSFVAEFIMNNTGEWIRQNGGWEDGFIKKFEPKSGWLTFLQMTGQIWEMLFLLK

[5] = target: T3, Ubiquitin-conjugating enzyme E2 N (Homo sapiens, UniProt P61088); type: functional
T3 sequence (P61088 whole entry): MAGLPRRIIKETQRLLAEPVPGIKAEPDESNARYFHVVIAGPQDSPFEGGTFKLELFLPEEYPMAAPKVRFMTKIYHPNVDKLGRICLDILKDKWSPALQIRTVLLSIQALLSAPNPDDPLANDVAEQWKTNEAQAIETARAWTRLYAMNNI

[6] = target: T3, Ubiquitin-conjugating enzyme E2 N; type: functional; remark: listed apart in the source
Insulin-degrading enzyme [7] = target: T4, Insulin-degrading enzyme (Homo sapiens, UniProt P14735); assay: recombinant IDE activation, cell-free – biochemical, fluorescence polarization, counter-screen for IDE activator project, dose response (AID 588681)
T4 sequence (P14735 whole entry): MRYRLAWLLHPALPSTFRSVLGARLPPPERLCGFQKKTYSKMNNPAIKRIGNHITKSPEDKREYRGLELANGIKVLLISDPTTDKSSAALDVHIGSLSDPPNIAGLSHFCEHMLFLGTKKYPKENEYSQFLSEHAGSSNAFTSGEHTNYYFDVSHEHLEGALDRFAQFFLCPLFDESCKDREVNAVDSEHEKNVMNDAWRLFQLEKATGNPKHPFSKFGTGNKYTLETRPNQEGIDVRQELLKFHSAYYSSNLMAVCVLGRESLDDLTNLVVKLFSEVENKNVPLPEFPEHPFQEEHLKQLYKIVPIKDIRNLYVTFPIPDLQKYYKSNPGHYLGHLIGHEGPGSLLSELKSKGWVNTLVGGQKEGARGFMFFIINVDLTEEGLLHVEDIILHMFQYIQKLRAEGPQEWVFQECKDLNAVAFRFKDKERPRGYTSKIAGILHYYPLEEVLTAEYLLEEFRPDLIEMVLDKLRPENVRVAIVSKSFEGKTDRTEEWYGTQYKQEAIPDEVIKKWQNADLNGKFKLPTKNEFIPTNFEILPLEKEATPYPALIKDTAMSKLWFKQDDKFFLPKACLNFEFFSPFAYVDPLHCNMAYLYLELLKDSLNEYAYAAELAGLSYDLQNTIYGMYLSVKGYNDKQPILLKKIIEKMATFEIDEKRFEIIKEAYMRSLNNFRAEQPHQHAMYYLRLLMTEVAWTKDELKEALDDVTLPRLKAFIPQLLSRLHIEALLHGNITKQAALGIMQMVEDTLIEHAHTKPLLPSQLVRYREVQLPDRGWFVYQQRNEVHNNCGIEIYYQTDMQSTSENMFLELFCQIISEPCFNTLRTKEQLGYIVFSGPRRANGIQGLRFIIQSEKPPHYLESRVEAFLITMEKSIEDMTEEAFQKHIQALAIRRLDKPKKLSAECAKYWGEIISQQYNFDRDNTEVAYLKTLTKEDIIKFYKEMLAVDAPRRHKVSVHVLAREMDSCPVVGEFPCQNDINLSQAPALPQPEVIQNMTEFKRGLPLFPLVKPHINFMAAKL

Insulin-degrading enzyme [8] = target: T4, Insulin-degrading enzyme; assay: cellular IDE activation of Abeta substrate cleavage – fluorescence polarization, HEK cells, dose response (AID 588439); type: functional, cell-based
HEK293 [9] = assay: membrane integrity loss in HEK cells – cell-based, fluorescence, cytotoxicity control for IDE activator project, dose response (AID 588440); type: functional; settings: Homo sapiens;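 also: cytotoxicity by LDH release measuring loss of membrane integrity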
HEK293 [10] = assay: optical interference in Abeta FP readout, dose response, artefact control for IDE activator project, biochemical, fluorescence polarization (AID 588442); type: functional, cell-based; settings: Homo sapiens

Chain of 26S proteasome non-ATPase regulatory subunit 14 (O00487 whole entry): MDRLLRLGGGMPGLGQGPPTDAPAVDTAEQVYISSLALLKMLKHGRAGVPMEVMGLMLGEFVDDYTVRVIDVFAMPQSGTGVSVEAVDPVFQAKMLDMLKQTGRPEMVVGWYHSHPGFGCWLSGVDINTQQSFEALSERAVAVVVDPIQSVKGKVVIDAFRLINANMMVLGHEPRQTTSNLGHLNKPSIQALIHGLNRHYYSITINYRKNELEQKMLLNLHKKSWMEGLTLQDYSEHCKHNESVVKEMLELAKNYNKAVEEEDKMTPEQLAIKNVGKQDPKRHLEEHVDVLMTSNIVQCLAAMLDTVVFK

IC50 [1]: 36.2 µM (active) | IC50 [2]: > 100 µM (inactive) | IC50 (Prothrombin): 43.3 µM (active) | IC50 [3]: 14.2 µM (active) | IC50 [4]: 31.3 µM (active)
SMILES: Cc1ccccc1CN1C(=O)C(C)Sc2ccc(-c3ccco3)cc21 (centres undefined)

Ki (Aurora kinase A): 100 nM (active) | Ki (Aurora kinase B): 1.26 nM (active)
SMILES: Nc1ncnc2sc3c(c12)-c1ccc(NC(=O)Nc2cccc(C(F)(F)F)c2)cc1CC3

SMILES: C#CCOCCOCCOCCNc1nc(N2CCN(C(=O)CCCCCCCCCCNC(=O)[C@H](CCCCN)n3cc(C)nn3)CC2)nc(N2CCN(C(=O)CCCCCCCCCCNC(=O)[C@H](CO)n3cc(CCCSC)nn3)CC2)n1
IC50 (Bcl-2-related protein A1): > 20 µM (inactive) | IC50 [5]: 6.96 µM (active) | IC50 [6]: 4.05 µM (active) | EC50 (Insulin-degrading enzyme [7]): > 6.08 µM (active) | EC50 (Insulin-degrading enzyme [8]): > 54.7 µM (inactive) | IC50 (HEK293 [9]): 9.88 µM (active) | EC50 (HEK293 [10]): > 55.9 µM (inactive)
